# Laboratory results taken from US11814680B2, “Biomarkers for detecting senescent cells” (Universität für Bodenkultur Wien, priority 2017, dated 2023).
# Marks after values point to notes of the source that are not given here.
# Experiments:
# p16-3MR mice [1] = assay: Pearson correlation of serum miRNA levels to miR-34a-5p and miR-27a-3p; set-up: species or system mouse; details: for Pearson Correlcation coefficient miR44a-5p: correlation of serum level to miR44a-5p (so in the source); for Pearson Correlcation coefficient miR-27a-3p: correlation of serum level to miR-27a-3p
# From the text: In order to extend these finding to potential additional miRNAs, we performed Pearson correlation to miR-34a-5p and miR-27a-3p, resulting in additional potential biomarkers (Table 18).
# p16-3MR mice [2] = assay: RT-qPCR verification of serum circulating microRNA changes, one-way ANOVA; type: in vivo, mouse; details: for regulation in serum after exposure to DOX compared to PBS: independent of gender, in words; for One-way ANOVA Senolytic Treatment (DOX/GCV) / One-way ANOVA Senescence (DOX vs PBS): serum; for One-way ANOVA Senolytic Treatment (DOX/GCV): DOX/GCV compared to DOX; for One-way ANOVA Senescence (DOX vs PBS): n=8 per group, male and female mice; for change of serum level following senolytic treatment (DOX/GCV compared to DOX): p<0.05, in words
# Procedure: p16-3MR (Demaria et al, 2014, Developmental Cell 31:722-733) mice were bred in house and maintained in the AALAC-accredited Buck Institute for Research on Aging (Novato, Calif.) animal facility. 10 to 12-week-old p16-3MR […] mice were used for experiments. Mice were divided in 4 groups and each group consisted of 8 animals, 5 female, and 3 male, respectively. In group A, control mice were injected with PBS. In group B, mice were treated with Ganciclovir (GCV) (Sigma-Aldrich) dissolved in PBS for 5 consecutive days. In group C, mice were treated with one dose of Doxorubicine hydrochloride (Sigma-Aldrich) dissolved in PBS. In group D, mice were first treated with Doxorubicine and then treated 10 days later with GCV. Mice were intraperitoneally injected with one dose of 10 mg/kg of Doxorubicine hydrochloride, and GCV was administered daily by intraperitoneal injections for 5 consecutive days at concentration of 25 mg/kg in PBS. 4 days after the last GCV dose, animals were euthanized with CO2 and blood was withdrawn immediately. Blood was then incubated for 30 min at room temperature and centrifuged at 3400×g for 10 min. Serum was carefully collected in a sterile tube without disturbing the cell pellet and stored at −80° C. for further experiments.
# Total RNA extraction was performed from 200 μl of serum using the Qiagen miRNeasy extraction kit (Qiagen, Germany). RNA yield was quality checked for homogenous extraction efficiency and hemolysis on the basis qPCR amplification of spiked-in as well as hemolysis-responsive RNAs (Blondal et al). In total 2 μl total RNA were used for reverse transcription using the Exiqon Universal RT kit II (Exiqon, Denmark). The obtained cDNA samples were pre-diluted 1:40 and subsequently mixed with SYBR Green® Mix (Exiqon, Denmark) to achieve a 1:100 dilution. The mix was distributed to primer-coated 384-well plates containing dried primer pairs for 96 selected microRNA or quality control assays. QPCR amplification was performed on a Roche LightCycler 480 II, using the manufacturer's recommendation for annealing, extension and denaturation.
# Raw Cq-values were computed using the 2nd derivative method. Melting curves were checked for peaks to ensure specificity of the amplification reactions. Cq-values were subsequently normalized using Spike-In controls as references, to reduce technical noise in the data.
# (§1) Statistical analysis was performed using Medcalc (version 18.2.1). Normal distribution was assessed using D'Agostino-Pearson test, where normality was accepted at p>0.05. One-way ANOVA together together with Student-Newman-Keuls test for all pairwise comparisons (post-hoc tests) was used to identify significant changes between groups (p<0.05). To assess the discriminatory power of individual microRNAs, receiver operating characteristic (ROC) analysis was applied. ROC curves were plotted using sensitivity (y-axis) and 1-specificity (x-axis) and the area under the ROC curve (AUC) was calculated. MicroRNAs with AUC-values of >0.7 were considered as good discriminators/biomarkers. MicroRNAs with AUC-values >0.8 were considered very good discriminators/biomarkers.
# p16-3MR mice [3] = assay: ROC analysis of discriminatory power of circulating microRNAs; type: in vivo, mouse; details: serum, RT-qPCR, symbol after the number = significance; for ROC Analysis AUC Senescence: DOX vs PBS; for ROC Analysis AUC Senolytic Treatment: DOX/GCV vs DOX
# Procedure: as §1
# In order to assess the diagnostic power of circulating microRNAs for the exposure with senescence inducing substances (DOX) as well as the efficacy of senolytic treatment, ROC analysis was performed and the area-under-the-curve (AUC) was calculated. […] Table 23 below summarizes AUC values as well as 95% confidence intervals for 24 selected circulating microRNAs.
Substance,Pearson Correlcation coefficient miR44a-5p (p16-3MR mice [1]),Pearson Correlcation coefficient miR-27a-3p (p16-3MR mice [1]),regulation in serum after exposure to DOX compared to PBS (p16-3MR mice [2]),One-way ANOVA Senolytic Treatment (DOX/GCV) (p16-3MR mice [2]),One-way ANOVA Senescence (DOX vs PBS) (p16-3MR mice [2]),ROC Analysis AUC Senescence (p16-3MR mice [3]),ROC Analysis AUC Senolytic Treatment (p16-3MR mice [3]),change of serum level following senolytic treatment (DOX/GCV compared to DOX) (p16-3MR mice [2])
"mmu-miR-29a-3p: circulating microRNA, SEQ ID No. 22 (UAGCACCAUCUGAAAUCGGUUA; expressed or natural sequence; listed as Homo sapiens)",0.74,0.74,,,,,,
"mmu-miR-339-5p: circulating microRNA, SEQ ID No. 10 (UCCCUGUCCUCCAGGAGCUCACG; expressed or natural sequence; listed as Homo sapiens)",0.64,0.87,,,,,,
"miR-151-5p: circulating microRNA biomarker, SEQ ID No. 17 (UCGAGGAGCUCACAGUCUAGU; expressed or natural sequence; listed as Homo sapiens)",0.73,0.37,significantly (up- or down-regulated),○,* (significant p < 0.05),0.828*,0.609°,
"mmu-miR-191-5p: circulating microRNA, SEQ ID No. 18 (CAACGGAAUCCCAAAAGCAGCUG; expressed or natural sequence; listed as Homo sapiens)",0.32,0.81,,,,,,
"mmu-miR-3058-3p: circulating microRNA, SEQ ID No. 8 (UUCCUGUCAGCCGUGGGUGCC; expressed or natural sequence; listed as Homo sapiens)",0.80,0.54,,,,,,
"mmu-miR-223-3p: circulating microRNA, SEQ ID No. 19 (UGUCAGUUUGUCAAAUACCCCA; expressed or natural sequence; listed as Homo sapiens)",0.55,0.83,,,,,,
"mmu-miR-30b-5p: circulating microRNA, SEQ ID No. 9 (UGUAAACAUCCUACACUCAGCU; expressed or natural sequence; listed as Homo sapiens)",0.70,0.65,,,,,,
"miR-24-3p: circulating microRNA biomarker, SEQ ID No. 21 (UGGCUCAGUUCAGCAGGAACAG; expressed or natural sequence; listed as Homo sapiens)",0.61,0.89,,* (significant p < 0.05),○,0.609°,0.789*,significantly changed
"mmu-miR-6395: circulating microRNA, SEQ ID No. 12 (CUGGCCCUCUCUGCCCUGUUUA; expressed or natural sequence; listed as Homo sapiens)",0.61,0.81,,,,,,
"miR-409-3p: circulating microRNA biomarker, SEQ ID No. 89 (GAAUGUUGCUCGGUGAACCCCU; expressed or natural sequence; listed as Homo sapiens)",,,,* (significant p < 0.05),○,0.609°,0.859*,significantly changed
"miR-199a-5p: circulating microRNA biomarker, SEQ ID No. 81 (CCCAGUGUUCAGACUACCUGUUC; expressed or natural sequence; listed as Homo sapiens)",,,significantly (up- or down-regulated),+ (by trend p < 0.2),* (significant p < 0.05),0.906*,0.781*,
"miR-23b-3p: circulating microRNA biomarker, SEQ ID No. 47 (AUCACAUUGCCAGGGAUUACC; expressed or natural sequence; listed as Homo sapiens)",,,,* (significant p < 0.05),○,0.563°,0.875*,significantly changed
"miR-31-5p: circulating microRNA biomarker, SEQ ID No. 87 (AGGCAAGAUGCUGGCAUAGCU; expressed or natural sequence; listed as Homo sapiens)",,,,○,+ (by trend p < 0.2),0.688+,0.672°,significantly changed
"miR-183-3p: circulating microRNA biomarker, SEQ ID No. 85 (GUGAAUUACCGAAGGGCCAUAA; expressed or natural sequence; listed as Homo sapiens)",,,,* (significant p < 0.05),○,0.563°,0.891*,significantly changed
"mmu-miR-10a-3p: circulating microRNA, SEQ ID No. 16 (CAAAUUCGUAUCUAGGGGAAUA; expressed or natural sequence; listed as Homo sapiens)",0.52,0.90,,,,,,
"mmu-miR-652-3p: circulating microRNA, SEQ ID No. 13 (AAUGGCGCCACUAGGGUUGUG; expressed or natural sequence; listed as Homo sapiens)",0.77,0.66,,,,,,
"miR-375-5p: circulating microRNA biomarker, SEQ ID No. 88 (UUUGUUCGUUCGGCUCGCGUGA; expressed or natural sequence; listed as Homo sapiens)",,,,* (significant p < 0.05),○,0.570°,0.859*,significantly changed
